Source: PubChem BioAssay AID2060611 (Molecular Pharmacology Branch, DTP, NCI, 2025)
“And” between values parts separate entries of the source, which are not always exact repeats. Equal values may be shown once.

System: 628569-122-R-J1-PDC complex spheroid viability
Test: Anticancer human tumor 628569-122-R-J1-PDC patient-derived head and neck squamous carcinoma cell line growth inhibition [CLK]
Settings: for viability, T/C: stronger effect = lower value
In short: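 Patient-derived tumor cells grown as complex spheroids with HUVEC endothelial cells and mesenchymal stem cells, treated with drug combinations. Concentrations descend in half-log steps from near clinical Cmax, or from 10 microM if Cmax unknown.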

[1] = curve of first compound, second compound 0.0316 µM
[2] = curve of first compound, second compound 0.1 µM
[3] = curve of first compound, second compound 0.316 µM
[4] = curve of first compound, second compound 1 µM
[5] = curve of first compound, second compound 3.16 µM
[6] = curve of first compound, second compound 10 µM
[7] = second compound 0.0316 µM, first compound 0.0316 µM
[8] = second compound 0.0316 µM, first compound 0.1 µM
[9] = second compound 0.0316 µM, first compound 0.316 µM
[10] = second compound 0.0316 µM, first compound 1 µM
[11] = second compound 0.0316 µM, first compound 3.16 µM
[12] = second compound 0.0316 µM, first compound 10 µM
[13] = second compound 0.1 µM, first compound 0.0316 µM
[14] = second compound 0.1 µM, first compound 0.1 µM
[15] = second compound 0.1 µM, first compound 0.316 µM
[16] = second compound 0.1 µM, first compound 1 µM
[17] = second compound 0.1 µM, first compound 3.16 µM
[18] = second compound 0.1 µM, first compound 10 µM
[19] = second compound 0.316 µM, first compound 0.0316 µM
[20] = second compound 0.316 µM, first compound 0.1 µM
[21] = second compound 0.316 µM, first compound 0.316 µM
[22] = second compound 0.316 µM, first compound 1 µM
[23] = second compound 0.316 µM, first compound 3.16 µM
[24] = second compound 0.316 µM, first compound 10 µM
[25] = second compound 1 µM, first compound 0.0316 µM
[26] = second compound 1 µM, first compound 0.1 µM
[27] = second compound 1 µM, first compound 0.316 µM
[28] = second compound 1 µM, first compound 1 µM
[29] = second compound 1 µM, first compound 3.16 µM
[30] = second compound 1 µM, first compound 10 µM
[31] = second compound 3.16 µM, first compound 0.0316 µM
[32] = second compound 3.16 µM, first compound 0.1 µM
[33] = second compound 3.16 µM, first compound 0.316 µM
[34] = second compound 3.16 µM, first compound 1 µM
[35] = second compound 3.16 µM, first compound 3.16 µM
[36] = second compound 3.16 µM, first compound 10 µM
[37] = second compound 10 µM, first compound 0.0316 µM
[38] = second compound 10 µM, first compound 0.1 µM
[39] = second compound 10 µM, first compound 0.316 µM
[40] = second compound 10 µM, first compound 1 µM
[41] = second compound 10 µM, first compound 3.16 µM
[42] = second compound 10 µM, first compound 10 µM
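Further: spheroids exposed to agents for seven days before readout.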
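Wherever viability, T/C is given: 100% = DMSO vehicle control viability.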

Structure (SMILES): COC1C=CCC(C)C(C)S(=O)(=O)NC(=O)c2ccc3c(c2)N(CC2CCC21)CC1(CCCc2cc(Cl)ccc21)CO3 (stereo not given) + CN1CCN(c2cc(C(=O)Nc3cc4cc(-c5cnn(C)c5)ccc4cn3)ccn2)CC1
- IC50 [1]: 1750 nM
- IC50 [2]: 773 nM
- IC50 [3]: < 31.6 nM
- IC50 [4]: < 31.6 nM
- IC50 [5]: < 31.6 nM
- IC50 [6]: < 31.6 nM
- viability, T/C [7]: 95.5%
- viability, T/C [8]: 89.9%
- viability, T/C [9]: 83.1%
- viability, T/C [10]: 51.5%
- viability, T/C [11]: 55%
- viability, T/C [12]: 40.1%
- viability, T/C [13]: 85%
- viability, T/C [14]: 68.4%
- viability, T/C [15]: 63.3%
- viability, T/C [16]: 40.8%
- viability, T/C [17]: 46.4%
- viability, T/C [18]: 43.6%
- viability, T/C [19]: 36.8%
- viability, T/C [20]: 34%
- viability, T/C [21]: 30.2%
- viability, T/C [22]: 20.7%
- viability, T/C [23]: 13.6%
- viability, T/C [24]: 13.3%
- viability, T/C [25]: 7.48%
- viability, T/C [26]: 5.89%
- viability, T/C [27]: 7.05%
- viability, T/C [28]: 7.13%
- viability, T/C [29]: 5.61%
- viability, T/C [30]: 7.24%
- viability, T/C [31]: 5.37%
- viability, T/C [32]: 6.94%
- viability, T/C [33]: 7.7%
- viability, T/C [34]: 7.72%
- viability, T/C [35]: 7.14%
- viability, T/C [36]: 6.03%
- viability, T/C [37]: 3.03%
- viability, T/C [38]: 1.85%
- viability, T/C [39]: 2.06%
- viability, T/C [40]: 6.57%
- viability, T/C [41]: 2.43%
- viability, T/C [42]: 1.39%

Structure (SMILES): Nc1ccn(C2OC(CO)C(O)C2(F)F)c(=O)n1 (stereo not given)
- viability, T/C (compound 0.0316 µM): 56.4% and 64.8%
- viability, T/C (compound 0.1 µM): 48.9% and 39.6%
- viability, T/C (compound 0.316 µM): 59% and 51.7%
- viability, T/C (compound 1 µM): 42.4% and 32.9%
- viability, T/C (compound 3.16 µM): 49.2% and 40.4%
- viability, T/C (compound 10 µM): 45.5% and 42%
- IC50 (curve of compound): 626 nM and 65.4 nM

Structure (SMILES): CCN1CCN(Cc2ccc(Nc3ncc(F)c(-c4cc(F)c5nc(C)n(C(C)C)c5c4)n3)nc2)CC1
- viability, T/C (compound 0.00316 µM): 86.6% and 89.6%
- viability, T/C (compound 0.01 µM): 81.3% and 70%
- viability, T/C (compound 0.0316 µM): 73.7% and 72.2%
- viability, T/C (compound 0.1 µM): 70.1% and 68.2%
- viability, T/C (compound 0.316 µM): 105% and 79.5%
- viability, T/C (compound 1 µM): 182% and 142%
- IC50 (curve of compound): > 1000 nM

Structure (SMILES): CCc1c2c(nc3ccc(O)cc13)-c1cc3c(c(=O)n1C2)COC(=O)[C@]3(O)CC + CNC(=O)c1ccc(Nc2nc(OC3CCCC3)c3c(-c4ccc5nc(C)oc5c4)c[nH]c3n2)c(OC)c1
- IC50 [1]: 326 nM
- IC50 [2]: 61.5 nM
- IC50 [3]: 10.7 nM
- IC50 [4]: < 3.16 nM
- IC50 [5]: < 3.16 nM
- IC50 [6]: < 3.16 nM
- viability, T/C (second compound 0.0316 µM, first compound 0.00316 µM): 62.2%
- viability, T/C (second compound 0.0316 µM, first compound 0.01 µM): 47.5%
- viability, T/C [7]: 53.5%
- viability, T/C [8]: 46.6%
- viability, T/C [9]: 51.5%
- viability, T/C [10]: 11.4%
- viability, T/C (second compound 0.1 µM, first compound 0.00316 µM): 56.6%
- viability, T/C (second compound 0.1 µM, first compound 0.01 µM): 51.1%
- viability, T/C [13]: 55.2%
- viability, T/C [14]: 43.1%
- viability, T/C [15]: 42%
- viability, T/C [16]: 13.9%
- viability, T/C (second compound 0.316 µM, first compound 0.00316 µM): 54.2%
- viability, T/C (second compound 0.316 µM, first compound 0.01 µM): 49.4%
- viability, T/C [19]: 42.8%
- viability, T/C [20]: 44.4%
- viability, T/C [21]: 31.9%
- viability, T/C [22]: 21.8%
- viability, T/C (second compound 1 µM, first compound 0.00316 µM): 38.8%
- viability, T/C (second compound 1 µM, first compound 0.01 µM): 42.2%
- viability, T/C [25]: 40.2%
- viability, T/C [26]: 34.2%
- viability, T/C [27]: 26.1%
- viability, T/C [28]: 11.1%
- viability, T/C (second compound 3.16 µM, first compound 0.00316 µM): 39.8%
- viability, T/C (second compound 3.16 µM, first compound 0.01 µM): 40%
- viability, T/C [31]: 36.4%
- viability, T/C [32]: 39.2%
- viability, T/C [33]: 29.7%
- viability, T/C [34]: 7.37%
- viability, T/C (second compound 10 µM, first compound 0.00316 µM): 38.7%
- viability, T/C (second compound 10 µM, first compound 0.01 µM): 41.8%
- viability, T/C [37]: 37.1%
- viability, T/C [38]: 33.5%
- viability, T/C [39]: 24.5%
- viability, T/C [40]: 6.76%

Structure (SMILES): CC1(C)CCC(CN2CCN(c3ccc(C(=O)NS(=O)(=O)c4ccc(NCC5CCOCC5)c([N+](=O)[O-])c4)c(Oc4cnc5[nH]ccc5c4)c3)CC2)=C(c2ccc(Cl)cc2)C1 + CN1CCN(c2cc(C(=O)Nc3cc4cc(-c5cnn(C)c5)ccc4cn3)ccn2)CC1
- IC50 [1]: > 10000 nM
- IC50 [2]: > 10000 nM
- IC50 [3]: < 31.6 nM
- IC50 [4]: < 31.6 nM
- IC50 [5]: < 31.6 nM
- IC50 [6]: < 31.6 nM
- viability, T/C [7]: 94%
- viability, T/C [8]: 105%
- viability, T/C [9]: 103%
- viability, T/C [10]: 96%
- viability, T/C [11]: 97%
- viability, T/C [12]: 85.6%
- viability, T/C [13]: 70.8%
- viability, T/C [14]: 63.6%
- viability, T/C [15]: 78.5%
- viability, T/C [16]: 67.7%
- viability, T/C [17]: 71.1%
- viability, T/C [18]: 69.5%
- viability, T/C [19]: 36.1%
- viability, T/C [20]: 29.7%
- viability, T/C [21]: 41.3%
- viability, T/C [22]: 36%
- viability, T/C [23]: 28.4%
- viability, T/C [24]: 22.4%
- viability, T/C [25]: 10.8%
- viability, T/C [26]: 13.3%
- viability, T/C [27]: 5.93%
- viability, T/C [28]: 9.88%
- viability, T/C [29]: 10.1%
- viability, T/C [30]: 3.58%
- viability, T/C [31]: 8.81%
- viability, T/C [32]: 8.56%
- viability, T/C [33]: 6.4%
- viability, T/C [34]: 7.84%
- viability, T/C [35]: 8.73%
- viability, T/C [36]: 3.29%
- viability, T/C [37]: 7.98%
- viability, T/C [38]: 2.99%
- viability, T/C [39]: 4.03%
- viability, T/C [40]: 8.3%
- viability, T/C [41]: 3.6%
- viability, T/C [42]: 0.85%
